These results are taken from ChEMBL document CHEMBL1201862, “PubChem BioAssay data set” (2004).

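Step 1: Grow cells in 96-well plates. Step 2: Expose to compound for 48 hours at 5 concentrations. Step 3: Interpolate endpoints linearly; if unreached, use highest concentration. The concentration for 50% growth inhibition is given as GI50.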 The source made the active and inactive calls. Rule as the data show it: active = GI50 up to about 1.1 µM and inactive = higher.

Among the test systems are RXF 393; SF-539; CAKI-1; IGROV-1; NCI-H460; M14; LOX IMVI; SN12C; SF-295; HCC 2998; NCI-H522; COLO 205; HCT-15; HCT-116; SR; A498; HL-60.
Common to all, as to experiment: NCI-60 cell line screen, 48 h

Take `COc1ccc(S(=O)(=O)N[C@H](C(=O)O)c2ccccc2)cc1`: the GI50 in the assay on RXF 393, in the assay with SF-539, with CAKI-1, with IGROV-1, with NCI-H460 and with M14 was > 100 µM (inactive) in each case. The GI50 in the assay on LOX IMVI was > 100 µM (inactive); with SN12C, > 100 µM (inactive); in the assay on SF-295, > 100 µM (inactive); with HCC 2998 it was > 100 µM (inactive); with NCI-H522 it was > 10 µM (inactive); with COLO 205, > 100 µM (inactive). The GI50 with HCT-15 is above 100 µM; in the assay on HCT-116 it was > 100 µM (inactive).

In the case of `C/C(=N\NS(=O)(=O)c1ccc(C)cc1)c1c(O)cc(C)oc1=O`, the GI50 in the assay with SF-539, in the assay on CAKI-1, in the assay on IGROV-1, in the assay on SR, in the assay on NCI-H460 and with M14 was > 100 µM (inactive) each time. Moreover, the GI50 in the assay with A498, with LOX IMVI, in the assay on SN12C, in the assay with SF-295, with HL-60 and in the assay with HCC 2998 was > 100 µM (inactive) throughout. Also, the GI50 is above 100 µM in the assay with HCT-15 and > 100 µM (inactive) with HCT-116.

On to `COc1ccc(C23c4ccc(OC)cc4CC2(c2ccc([N+](=O)[O-])cc2)Cc2cc(OC)ccc23)cc1` (stereo not given), for which the GI50 is > 14.2 µM (inactive) in the assay with SF-539; > 27.2 µM (inactive) with CAKI-1; > 21.5 µM (inactive) in the assay on IGROV-1; > 89.1 µM (inactive) in the assay with NCI-H460; > 46.2 µM (inactive) with M14; > 29.7 µM (inactive) in the assay on A498. Moreover, the GI50 with LOX IMVI was > 21.3 µM (inactive); in the assay with SN12C, > 50.6 µM (inactive); in the assay on HL-60 it was > 55 µM (inactive); in the assay with NCI-H522, > 59.8 µM (inactive); with COLO 205, > 36.2 µM (inactive); in the assay with HCT-15, above 93.5 µM. The GI50 with HCT-116 is > 37.2 µM (inactive).

Turning to `CCOC(=O)C(=O)Nc1ccc(C)cc1C`, the GI50 in the assay on RXF 393, in the assay with SF-539, in the assay with CAKI-1, in the assay with IGROV-1, in the assay with SR and with NCI-H460 was > 100 µM (inactive) throughout. Further, the GI50 in the assay on M14, in the assay with LOX IMVI, in the assay on SN12C, in the assay with SF-295, in the assay with HL-60 and in the assay on HCC 2998 was > 100 µM (inactive) throughout. In addition, the GI50 in the assay on NCI-H522 is > 100 µM (inactive); in the assay on COLO 205, > 100 µM (inactive); in the assay on HCT-15 it was above 100 µM; in the assay on HCT-116, > 100 µM (inactive).

With `CC(C)c1cc2c(O)c(c1)Cc1cc(C(C)C)cc(c1O)Cc1cc(C(C)C)cc(c1O)Cc1cc(C(C)C)cc(c1O)Cc1cc(C(C)C)cc(c1O)Cc1cc(C(C)C)cc(c1O)C2`, the GI50 in the assay with RXF 393, with SF-539, in the assay with IGROV-1, with NCI-H460, with M14 and with SN12C was > 100 µM (inactive) each time. Further, the GI50 with SF-295 is > 100 µM (inactive); with HL-60, > 100 µM (inactive); with HCC 2998, > 100 µM (inactive); in the assay on NCI-H522, > 100 µM (inactive); in the assay with COLO 205 it was > 100 µM (inactive); in the assay with HCT-15 it was above 100 µM. In addition, the GI50 in the assay on HCT-116 is > 100 µM (inactive).

For `O=C(N/N=C(\C1=Nc2ccc(Cl)cc2NC1O)C(O)/C=C/c1ccccc1)c1ccncc1` (stereo not given), the GI50 in the assay on RXF 393, with SF-539, in the assay with CAKI-1, in the assay on IGROV-1, in the assay on SR and in the assay with NCI-H460 was > 100 µM (inactive) throughout. Further, the GI50 in the assay with M14, in the assay on LOX IMVI, in the assay with SN12C, in the assay with SF-295, in the assay with HL-60 and with HCC 2998 was > 100 µM (inactive) in each case. The GI50 in the assay with NCI-H522 was > 100 µM (inactive); in the assay with COLO 205 it was > 100 µM (inactive); with HCT-15, above 100 µM; in the assay with HCT-116, > 100 µM (inactive).

For the compound `O=C(/C=C/c1ccccc1F)c1ccc([N+](=O)[O-])cc1`, the GI50 in the assay on RXF 393 was 19.5 µM (inactive); in the assay with CAKI-1, 15.5 µM (inactive); in the assay on IGROV-1 it was 24.3 µM (inactive); in the assay on NCI-H460, 30.8 µM (inactive); in the assay on M14 it was 26.8 µM (inactive); in the assay with LOX IMVI, 4.35 µM (inactive). In addition, the GI50 in the assay with SN12C is 37.8 µM (inactive); with SF-295, 27.9 µM (inactive); in the assay on HCC 2998, 15.6 µM (inactive); in the assay on COLO 205, 35.2 µM (inactive); with HCT-15 it was 18.2 µM.

For `Cc1nc(N)c(-c2ccccc2)s1`, the GI50 with RXF 393 is > 48.2 µM (inactive); with SF-539, 70.8 µM (inactive); with CAKI-1, > 92.7 µM (inactive); in the assay on IGROV-1, > 78.2 µM (inactive); in the assay on NCI-H460, 51.1 µM (inactive); with M14, 40.9 µM (inactive). Also, the GI50 was > 32.4 µM (inactive) with A498; 52.4 µM (inactive) in the assay on LOX IMVI; 81.3 µM (inactive) in the assay on SN12C; 32.7 µM (inactive) with SF-295; 28.6 µM (inactive) with HL-60; > 100 µM (inactive) with HCC 2998. Further, the GI50 with NCI-H522 is 42.7 µM (inactive); with COLO 205, > 47 µM (inactive); with HCT-15, 33.8 µM; with HCT-116 it was 31.7 µM (inactive).

Take `CCCN(CCC)C(=O)C(=O)c1c(N)[nH]n(-c2ccccc2)c1=O`: the GI50 in the assay with SF-539, in the assay with CAKI-1, in the assay on IGROV-1, in the assay on NCI-H460, in the assay with M14 and with A498 was > 100 µM (inactive) in each case. Besides, the GI50 with LOX IMVI is > 100 µM (inactive); in the assay on SN12C, > 100 µM (inactive); with SF-295 it was > 100 µM (inactive); with HL-60 it was 80.9 µM (inactive); in the assay on HCC 2998 it was > 100 µM (inactive); in the assay on NCI-H522 it was > 100 µM (inactive). The GI50 is > 100 µM (inactive) with COLO 205, above 100 µM in the assay with HCT-15 and > 100 µM (inactive) in the assay with HCT-116.

Regarding `CN/N=C(/c1nc2ccc([N+](=O)[O-])cc2nc1O)C(O)c1ccc(C(O)/C(=N\NC)c2nc3ccc([N+](=O)[O-])cc3nc2O)cc1` (stereo not given), the GI50 is > 100 µM (inactive) in the assay on RXF 393; 42.6 µM (inactive) in the assay on SF-539; > 100 µM (inactive) with CAKI-1; > 100 µM (inactive) with IGROV-1; 42.6 µM (inactive) in the assay with NCI-H460; 52.4 µM (inactive) with M14. In addition, the GI50 in the assay with A498 was > 100 µM (inactive); with LOX IMVI it was > 100 µM (inactive); with SF-295 it was 66.4 µM (inactive); in the assay on HL-60, 4.37 µM (inactive); in the assay on HCC 2998, 23.9 µM (inactive); in the assay on COLO 205, 64.9 µM (inactive). Besides, the GI50 with HCT-15 was 29.5 µM; in the assay on HCT-116 it was > 100 µM (inactive).

Take `COC(=O)C(=O)CC(=O)CCn1[nH]c(=O)c(Cl)c(Cl)c1=O`: the GI50 with RXF 393, in the assay with SF-539, in the assay with CAKI-1, with IGROV-1, with NCI-H460 and in the assay on M14 was > 100 µM (inactive) throughout. The GI50 in the assay with A498, in the assay on LOX IMVI, with SN12C, in the assay on SF-295, in the assay on HL-60 and with HCC 2998 was > 100 µM (inactive) in each case. For the same compound, the GI50 is > 100 µM (inactive) in the assay with NCI-H522, > 100 µM (inactive) in the assay with COLO 205, above 100 µM with HCT-15 and > 100 µM (inactive) with HCT-116.

Consider `c1ccc2c(c1)SC(=C1Sc3ccccc3S1)S2`, for which the GI50 was > 100 µM (inactive) with RXF 393; > 100 µM (inactive) with CAKI-1; > 100 µM (inactive) in the assay with IGROV-1; 55.8 µM (inactive) in the assay with NCI-H460; > 100 µM (inactive) with M14; 75.7 µM (inactive) with LOX IMVI. The GI50 was > 100 µM (inactive) in the assay on SN12C; > 100 µM (inactive) in the assay with SF-295; > 100 µM (inactive) in the assay on HCC 2998; > 100 µM (inactive) in the assay with COLO 205; above 100 µM in the assay on HCT-15.

Turning to `O=C1C(=O)N(c2ccc(Cl)cc2)C(=O)C(=O)C1c1nc2ccccc2o1`, the GI50 in the assay with RXF 393, in the assay on SF-539, in the assay on CAKI-1, in the assay on IGROV-1, with NCI-H460 and with M14 was > 100 µM (inactive) each time. Further, the GI50 in the assay with A498, in the assay on LOX IMVI, in the assay with SN12C, in the assay with SF-295, with HL-60 and in the assay on HCC 2998 was > 100 µM (inactive) each time. For the same compound, the GI50 in the assay with NCI-H522 is > 100 µM (inactive); in the assay on COLO 205 it was > 100 µM (inactive); in the assay on HCT-15, above 100 µM; in the assay on HCT-116, > 100 µM (inactive).

With `CCCCCCN(CCCCCC)C(=O)Cc1c2n(c3ccccc13)Cc1ccccc1-2`, the GI50 was 26.5 µM (inactive) in the assay on RXF 393; > 100 µM (inactive) in the assay on SF-539; > 100 µM (inactive) in the assay on CAKI-1; 14.9 µM (inactive) in the assay on SR; 63.1 µM (inactive) in the assay on NCI-H460; 44.8 µM (inactive) in the assay on M14. The GI50 in the assay with LOX IMVI was 69.8 µM (inactive); in the assay with SN12C, 52.5 µM (inactive); with SF-295 it was 56.8 µM (inactive); in the assay on HL-60, 19.8 µM (inactive); with HCC 2998, 53.7 µM (inactive); in the assay on NCI-H522, 32.5 µM (inactive). The values for the GI50 in the assay on COLO 205, with HCT-15 and in the assay with HCT-116 were 58.5 µM (inactive), 37.4 µM and 29.6 µM (inactive), respectively.
